From patent US20110172230A1, “UREA COMPOUND OR SALT THEREOF” (priority 2006, published 2011) come the findings set out here.

One assay concerns the target T1, FAAH (Homo sapiens, UniProt O00519).
T1 construct: host or cells: 5637 human bladder epithelial cancer-derived cells, not transfected
T1 sequence (O00519 1-579): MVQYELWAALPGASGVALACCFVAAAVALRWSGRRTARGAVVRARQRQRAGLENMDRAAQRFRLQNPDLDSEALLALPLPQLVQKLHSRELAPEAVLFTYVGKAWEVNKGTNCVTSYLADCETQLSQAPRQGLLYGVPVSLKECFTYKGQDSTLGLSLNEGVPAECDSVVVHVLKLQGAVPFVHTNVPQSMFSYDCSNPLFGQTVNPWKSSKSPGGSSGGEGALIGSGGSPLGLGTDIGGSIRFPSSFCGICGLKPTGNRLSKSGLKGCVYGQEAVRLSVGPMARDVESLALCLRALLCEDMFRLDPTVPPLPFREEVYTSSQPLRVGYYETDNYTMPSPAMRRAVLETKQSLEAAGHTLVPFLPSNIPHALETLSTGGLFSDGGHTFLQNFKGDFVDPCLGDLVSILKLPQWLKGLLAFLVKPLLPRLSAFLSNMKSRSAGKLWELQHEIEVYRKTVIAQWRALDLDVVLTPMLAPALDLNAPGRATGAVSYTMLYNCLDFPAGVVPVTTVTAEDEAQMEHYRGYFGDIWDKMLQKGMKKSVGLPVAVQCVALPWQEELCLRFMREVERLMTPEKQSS
Put plainly: Screening for an FAAH activity-inhibiting substance with human bladder epithelial cancer-derived cell line 5637 cells (IC50). The assay is classed as cell-based. Particulars: FAAH activity in human bladder epithelial cancer-derived 5637 cells, 37° C., 30 minutes. The method, then: Screening for an FAAH Activity-Inhibiting Substance with a Human Bladder Epithelial Cancer-Derived Cell
(1) Screening for an FAAH Activity Inhibiting Substance
Human bladder epithelial cancer-derived cell line 5637 cells (HTB-9; ATCC) were seeded on a 48-well cell culture plate in an amount of 1×10^5 cell/well, using 10% fetal bovine serum (HyClone)-containing RPMI1640 medium (Invitrogen Corporation). After incubated at 37° C. for 12 hours or longer, the cells were washed with 400 μl/well of a buffer (Hank's Balanced Salt Solution, 20 mM Hepes-NaOH (pH 7.4)). A test substance dissolved in DMSO was added to a substrate solution (the above buffer containing 3 μCi/ml radiolabeled anandamide (Anandamide [ethanolamine 1-^3H]) and 10 μM anandamide) so as to have a concentration from 0.003 nM to 30 nM. As a control, DMSO alone was added. 100 μl/well of the substrate solution was added to the above cells, and incubated in a CO2 incubator at 37° C. for 30 minutes. Next, the cell culture plate was transferred onto ice, and the substrate solution was removed by suction; and 75 μl/well of a cytolytic solution (the above buffer containing 0.5% Triton X-100, and 10 μM of FAAH-inhibitory activity-having compound, 3′-carbamoylbiphenyl-3-yl ester (URB597; Cayman chemical; Kathuria et al., Nature Med., Vol. 9, pp. 76-81, 2003)) was added thereto, followed by stirring. The resulting cell lysate in every well was individually transferred into a 1.5 ml sample tube, to which was added 150 μl of 1:1 (ratio by volume) chloroform/methanol solution, followed by vortexing. This was centrifuged (15000 rpm, 2 minutes), whereby the decomposed product, ethanolamine (ethanolamine 1-^3H) was separated in the upper layer (water/methanol layer) and the unreacted radiolabeled anandamide was in the lower layer (chloroform layer). 25 μl of the upper layer was transferred into a 96-well organic solvent-resistant white microplate (PicoPlate-96; Perkin Elmer, Inc.), 150 μl of Microscint-20 (Perkin Elmer, Inc.) was added thereto, and this was measured with a microplate scintillation counter (TopCount™; Beckman Coulter, Inc.). As compared with the control, the substance that gave a decreased value was selected as an FAAH activity-inhibiting substance.
(2) Measurement of the IC50 Value of the FAAH Activity Inhibiting Substance
The compound dissolved in DMSO to have a concentration of 10 mM was dissolved in the substrate solution so as to have a varying concentration from 0.003 nM to 30 nM. According to the method mentioned above, the compound was analyzed for its influence on FAAH activity. As a negative control, DMSO was used. As a positive control, URB597 was added to the substrate solution to have a concentration of 10 μM. Based on the measured value of the positive control, 0%, and on the measured value of the negative control, 100%, the IC50 value of the test substance was obtained. Furthermore, Ex represents Example No. as denoted below.

The test system of assay [1] is cyclophosphamide (CPA)-induced urinary frequency. Description: Effect of compound on cyclophosphamide (CPA)-induced urinary frequency in a rat (effective bladder capacity). The assay is classed as in vivo. Particulars: CPA (100 mg/kg i.p.)-treated Wistar female rats, p.o.; for effective dose in oral administration: effective bladder capacity over 1 hour. The method, then:
Effect of Compound on Cyclophosphamide (CPA)-Induced Urinary Frequency in a Rat
Compounds were tested for their bladder irritation-relieving effect, using pathologic models. It is known that systemic administration of cyclophosphamide (CPA) converts the compound into its metabolite, acrolein, and, as existing in urine, this injures the bladder mucosa. In rats, CPA administration induces bladder pain or urinary frequency accompanied by hemorrhagic cystitis, and therefore using such rats, it is possible to evaluate the potency of drug for these symptoms. In this experiment, used were 9-week-old Wistar female rats (Charles River). CPA (100 mg/kg) was intraperitoneally administered to the rats, and after 2 days, the rats were tested. A test compound was orally administered (p.o.) to the rats; and after 15 minutes, distilled water (30 ml/kg) was forcedly orally administered thereto. The rats were put in a metabolic cage, and the weight of their urine was continuously measured for 1 hour. The overall urine amount was divided by the overall urination frequency, and the effective bladder capacity was thus calculated. […] In oral administration, the effective doses of compounds of Examples 155 and 210 were 10 mg/kg and 3 mg/kg, respectively.

Each structure is given as a SMILES string. pIC50: −log10 of the molar value. Structures can show the parent of a compound that is named as a salt.

The pIC50 is −log10 of the IC50, conventionally taken in molar units. High values mean a low IC50, low ones a high IC50. On FAAH, `O=C(Nc1cccnc1)N1CCN(Cc2ccnc(OCCC3CCCCC3)c2)CC1` [Example 30, 4-{[2-(2-cyclohexylethoxy)pyridin-4-yl]methyl}-N-pyridin-3-ylpiperazine-1-carboxamide trihydrochloride] showed a negative-log IC50 (pIC50) of 9.55. With `O=C(Nc1cnccn1)N1CCN(C(=O)c2ccnc(OCCC3CCCCC3)c2)CC1` [Example 38, 4-[2-(2-cyclohexylethoxy)isonicotinoyl]-N-pyrazin-2-ylpiperazine-1-carboxamide], the pIC50 on FAAH is 9.15. For the molecule `O=C(Nc1ncccn1)N1CCN(C(=O)c2cccc(OCCC3CCCCC3)c2)CC1` [Example 155], on FAAH, the pIC50 is 9.27. Moreover, in assay [1], the “effect on effective bladder capacity / urinary frequency” value was “increased the reduced effective bladder capacity, and relieved the condition of urinary frequency”; the “effective dose in oral administration” value was 10 mg/kg. As to `O=C(Nc1cnccn1)N1CCN(C(=O)c2cccc(OCCC3CCCCC3)c2)CC1` [Example 210], the pIC50 at FAAH is 9.80. Besides, in assay [1], the “effect on effective bladder capacity / urinary frequency” value was “increased the reduced effective bladder capacity, and relieved the condition of urinary frequency”; the “effective dose in oral administration” value amounted to 3 mg/kg. Turning to `CN(CCC1CCCCC1)c1ccc(C(=O)N2CCN(C(=O)Nc3cccnc3)CC2)cc1` [Example 334], the pIC50 against FAAH was 9.74. At FAAH, `COCC(=O)NC(=O)N1CCN(Cc2cccc(OCCC3CCCCC3)c2)CC1` [Example 439] gave a pIC50 of 9.37.
